Source: patent US20220378780A1, “PHARMACEUTICAL COMPOSITIONS COMPRISING POH DERIVATIVES” (NeOnc Technologies, Inc., priority 2019, published 2022)
“Also recorded” adds a separate entry of the source. Where two headings read alike, the source gives them in different places.

Legend:
[1] = tested on: tumor brain endothelial cells (TuBEC); assay: MTT cytotoxicity assay, tumor brain endothelial cells; assay type: cell-based
From the text: (§1) Cancer Lett. 2011 Mar. 28; 302(2):100-8.

HUT102 cells [2] = assay: Cell proliferation by Trypan blue exclusion counting, HUT102; assay type: cell-based, human; conditions: HUT102, 1 μM
From the text: (§2) 2. Material and methods 2.1. […] 2.2. […] 2.3. […] 2.4. […] 2.5.

HUT102 cells [3] = assay: MTT cell viability assay, HUT102 (Example 15); assay type: cell-based, human
From the text: as §2

[4] = tested on: TMZ sensitive cells (U251); assay: MTT cytotoxicity assay, U251
Procedure: (§3) MTT cytotoxicity assays were carried out after cells were treated with the TMZ-POH conjugate. The MTT cytotoxicity assays were carried out as described in Chen TC, et al. Green tea epigallocatechin gallate enhances therapeutic efficacy of temozolomide in orthotopic mouse glioblastoma models. Cancer Lett. 2011 Mar. 28; 302(2):100-8.

[5] = tested on: TMZ sensitive (U251) cells; assay: Colony forming assay, TMZ sensitive U251; assay type: cell-based, human
Procedure: (§4) Colony forming assays were carried out after cells were treated with TMZ alone, POH alone, and the TMZ-POH conjugate. […] Cancer Lett. 2011 Mar. 28; 302(2):100-8.

[6] = tested on: ER stress (CHOP) in TMZ sensitive and resistant U251 glioma cells; assay: Western blot of ER stress (CHOP) in U251 glioma cells; assay type: cell-based, human; conditions: 18 hr treatment
Procedure: TMZ sensitive and resistant glioma cells Western blots were performed after TMZ sensitive and resistant glioma cells were treated with the TMZ-POH conjugate for 18 hr. […] Activation of the proapoptic protein CHOP was shown at concentrations as low as 60 uM of TMZ-POH.

MyLa cells [7] = assay: Cell proliferation by Trypan blue exclusion counting, MyLa; assay type: cell-based, human; conditions: 1 μM
From the text: as §2

[8] = tested on: USC-04 glioma cancer stem cells; assay: MTT cytotoxicity assay, USC-04; assay type: cell-based; conditions: USC-04, MTT
From the text: as §1

MyLa cells [9] = assay: MTT cell viability assay, MyLa (Example 15); assay type: cell-based, human
From the text: as §2

[10] = tested on: brain endothelial cells (BEC; confluent and subconfluent); assay: MTT cytotoxicity assay, brain endothelial cells; assay type: cell-based
From the text: as §1

[11] = tested on: TMZ resistant cells (U251TR); assay: MTT cytotoxicity assay, U251TR
Procedure: as §3

Toxicity studies in mice = assay type: in vivo
From the text: (§5) Compared to both of its individual components, TMZ and POH, NEO212 exerts substantially greater cytotoxic activity, potentially via involvement of the pro-apoptotic module of the ER stress response mechanism, although its alkylating activity might contribute as well. As a next step in NEO212's development, in vivo experiments in immunodeficient murine CTCL models should be performed. We have attempted such models, but tumor take with our CTCL cell lines was unacceptably low, not inconsistent with reported challenges of achieving consistent tumor growth with these and other CTCL cell lines in general^57-59 It is conceivable that serial passage of positive tumors in mice would yield more aggressive cells, and we are considering pursuing this approach.

[12] = tested on: U87, A172 and U251 human glioma cells; assay: MTT cytotoxicity assay on human malignant glioma cells; assay type: cell-based
From the text: In vitro efficacy of the present composition can be determined using methods well known in the art. For example, the cytotoxicity of the present monoterpene (or sesquiterpene) and/or the therapeutic agents may be studied by MTT [3-(4,5-dimethylthiazol-2-yl)-2,5-diphenyl tetrazolium bromide] cytotoxicity assay. MTT assay is based on the principle of uptake of MTT, a tetrazolium salt, by metabolically active cells where it is metabolized into a blue colored formazon product, which can be read spectrometrically. J. of Immunological Methods 65: 55 63, 1983. The cytotoxicity of the present monoterpene (or sesquiterpene) derivative and/or the therapeutic agents may be studied by colony formation assay. Functional assays for inhibition of VEGF secretion and IL-8 secretion may be performed via ELISA. Cell cycle block by the present monoterpene (or sesquiterpene) derivative and/or the therapeutic agents may be studied by standard propidium iodide (PI) staining and flow cytometry. Invasion inhibition may be studied by Boyden chambers. In this assay a layer of reconstituted basement membrane, Matrigel, is coated onto chemotaxis filters and acts as a barrier to the migration of cells in the Boyden chambers. Only cells with invasive capacity can cross the Matrigel barrier. Other assays include, but are not limited to cell viability assays, apoptosis assays, and morphological assays.
Then U87, A172 and U251 cells were treated with dimethyl celecoxib bisPOH carbamate (POH-DMC) (e.g., synthesized by the method in Example 1), and the MTT cytotoxicity assays performed (FIG. 2).
Then TMZ-resistant glioma cell lines U87, A172 and U251 cells were treated with temozolomide POH carbamate (POH-TMZ) (e.g., synthesized by the method in Example 3).

normal astrocytes = assay: MTT cytotoxicity assay, normal astrocytes; conditions: listed as TMZ-POH
Procedure: as §3

[13] = Toxicity studies in Beagle dogs; assay type: in vivo; conditions: Beagle dogs (unpublished)
From the text: as §5

HUT78 cells [14] = assay: FACS analysis of cell death with 7-AAD; assay type: cell-based, human; conditions: 72 hours
From the text: as §2

HuT 78 cells = assay: MTT assay on HuT 78 cells (Example 14); conditions: HuT 78, 72 hours
Procedure: HuT 78 cells are cutaneous T lymphocytes derived from a patient with Sézary syndrome.
HuT 78 cells were treated in vitro with (i) temozolomide (50, 100, 250 μM), (ii) POH-TMZ conjugate (“NEO212”, 25, 50, 100 μM), (iii) NEO412 which is the triple conjugate of temozolomide (TMZ), perillyl alcohol (POH), and linoleic acid (25, 50, 100, 250 μM), or (iv) vehicle alone. Seventy-two hours after the addition of drugs or vehicle, cell viability was determined by standard MTT (methylthiazoletetrazolium) assay.

HUT78 cells [15] = assay: MTT cell viability assay, HUT78 (Example 15)
Procedure: Pharmacological agents—NEO212 was dissolved in DMSO at 100 mM. TMZ was purchased from Sigma Aldrich (St. Louis, Mo.) and dissolved in DMSO (Santa Cruz Biotechnology, Dallas, Tex.) to a concentration of 50 mM. POH was purchased from Sigma-Aldrich and diluted in DMSO to 100 mM. […] Stock solutions of all drugs were stored at −20° C. Staurosporine (STSP) was purchased from Selleck Chemicals (Houston, Tex.), stored at 4° C. protected from light, and dissolved in DMSO before use. Ascorbic acid (AA) and beta-mercaptoethanol (b-ME) (Sigma Aldrich) were prepared fresh before use. Crystalline AA was dissolved in phosphate-buffered saline (PBS) to 25 mM; b-ME was diluted in medium to 25 mM. […] Cell lines—Three different human CTLC cell lines were used. […] Both media also contained 100 U/mL penicillin and 0.1 mg/mL streptomycin. Penicillin, streptomycin, and RPMI (prepared with raw materials from Cellgro/MediaTech, Manassas, Va.) were provided by the Cell Culture Core lab of the USC/Norris Comprehensive Cancer Center. […] Cells were kept in a humidified incubator at 37° C. and a 5% CO2 atmosphere. FBS was obtained from Omega Scientific (Tarzana, Calif.) and from X&Y Cell Culture (Kansas City, Mo.). […] MTT assay—Methylthiazoletetrazolium (MTT) assays were performed as follows. Cells were seeded into 96-well plates in a volume of 50 μL per well at 3.0-5.0×10^5 cells/mL. An additional 50 μL of medium containing various concentrations of drug (or vehicle) was added and the cells were incubated for different lengths of time. This was followed by the addition of 10 μL thiazolyl-blue tetrazolium (i.e., MTT; Sigma Aldrich) from a stock solution of 5 mg/mL in phosphate-buffered saline (PBS). Cells were returned to the incubator for 4 hours. Thereafter, the reaction was stopped and the cells were lysed by the addition of 100 μL solubilization solution (10% sodium dodecyl sulfate in 0.01 M hydrochloric acid). The 96-well plate was left in the cell culture incubator over night for complete solubilization of the MTT crystals, and the optical density (OD) of each well was determined the next day in an ELISA plate reader at 560 nm. The background value (=OD of control wells containing medium without cells+MTT+solubilization solution) was subtracted from all measured values. In individual experiments, each treatment condition was set up in quadruplicate, and each experiment was repeated several times independently. […] Cell proliferation analysis—Cell proliferation was assessed by counting cells over time. Independent cell cultures were exposed to different concentrations of NEO212. At different times, aliquots of cells were removed, mixed with Trypan blue, and counted in a hemocytometer. Blue cells were considered dead, whereas unstained cells were counted as live cells. […] Fluorescence-activated cell sorting (FACS) analysis—Cells were seeded in 6-well tissue culture plates at 2×10^5 cells/mL, followed by drug treatment. After 72 hours, cells were collected, washed twice with PBS, transferred to a microcentrifuge tube, and suspended in 200 μL of 1× binding buffer solution, which was made fresh from 10x binding buffer (0.2 μm sterile-filtered 0.1 M HEPES, pH 7.4; 1.4 M NaCl; 25 mM CaCl2)). Then 1 μL of a 1 mg/mL 7-amino-actinomycin D (7-AAD) solution (Thermo Fisher Scientific, Waltham, Mass.) was added. After 20 minutes of incubation on ice, cell fluorescence was analyzed on a FACSAria Flow Cytometer (Becton Dickinson Biosciences Ltd., Franklin Lakes, N.J.).

[16] = tested on: CHOP, c-myc and cyclin D in HUT78, HUT102 and MyLa cells; assay: Western blot of ER stress and proliferation markers; assay type: cell-based, human; conditions: for lowest concentration triggering near-maximal CHOP induction: 72 hours
From the text: as §2

HUT78 cells [17] = assay: Cell proliferation by Trypan blue exclusion counting, HUT78; assay type: cell-based, human; conditions: HUT78, 1 μM
From the text: as §2

[18] = tested on: USC-02 glioma cancer stem cells; assay: MTT cytotoxicity assay, USC-02; assay type: cell-based; conditions: USC-02, MTT
From the text: as §1

[19] = tested on: cleaved PARP and cleaved caspases 3 and 4 in HUT78, HUT102 and MyLa cells; assay: Western blot of apoptosis markers (cleaved PARP-1, cleaved caspases); assay type: cell-based, human
From the text: as §2

[20] = tested on: TMZ resistant (U251TR) U251 cells; assay: Colony forming assay, TMZ resistant U251TR; assay type: cell-based, human
Procedure: as §4

With `C=C(C)C1CC=C(COC(=O)NC(=O)c2ncn3c(=O)n(C)nnc23)CC1` (centres unmarked) [NEO212] the “cytotoxicity in MTT assay” value [1] was “did not induce significant cytotoxicity”, the proliferation-inhibitory effect (HUT102 cells [2]) was “slightly less pronounced activity” and the IC50 (HUT102 cells [3]; HUT102, 72 hours) was 9 µM. The IC50 (HUT102 cells [3]; HUT102, 96 hours) was 3 µM, the “cytotoxicity in MTT assay” value [4] was “demonstrated cytotoxicity” and the “cytotoxicity in colony forming assay” value ([5]; listed as POH-TMZ) was “substantially greater potency compared to POH alone”. The “cytotoxicity in colony forming assay” value ([5]; listed as TMZ-POH) was “demonstrated cytotoxicity”, the “concentration at which activation of CHOP was shown” value ([6]; as low as) was 60 µM and the “induction of ER stress (ERS)” value ([6]; western blot) was “induces ER stress”. For the same compound, the proliferation-inhibitory effect (MyLa cells [7]) was “weaker activity”, the IC50 [8] was 150 µM and the IC50 (MyLa cells [9]; 72 hours) was about 130 µM. For the same compound, the IC50 (MyLa cells [9]; 96 hours) was about 85 µM, the “cytotoxicity in MTT assay” value ([10]; confluent BEC) was “did not induce significant cytotoxicity” and the “cytotoxicity in MTT assay” value ([10]; subconfluent BEC, high concentrations) was “Mild to moderate cytotoxicity”. The “cytotoxicity in MTT assay” value [11] was “demonstrated cytotoxicity”, the tolerability (Toxicity studies in mice) was “very well tolerated” and the “cytotoxicity in MTT assay” value [12] was “substantially higher kill rates”. The “cytotoxicity in MTT assay” value (normal astrocytes) was “not towards normal astrocytes; also recorded: did not induce significant cytotoxicity”, the tolerability [13] was “very well tolerated” and the cell death (HUT78 cells [14]; HUT78, 1 μM) was 33%. The cell death (HUT78 cells [14]; HUT78, 30 μM) was 50%, the “cytotoxic effect on MF cells in MTT assay” value (HuT 78 cells) was “pronounced cytotoxic effect” and the reduction of viability (HUT78 cells [15]; HUT78, 10 μM) was “over 50%”. For the same compound, the “concentration of earliest effect on viability” value (HUT78 cells [15]; HUT78, 24 hours, as low as) was 3 µM, the IC50 (HUT78 cells [15]; HUT78, 48 hours) was under 3 µM and the IC50 (HUT78 cells [15]; HUT78, 72 hours) was about 4 µM. For the same compound, the “potency relative to that of TMZ” value (HUT78 cells [15]; HUT78 cells) was “over 100 fold”, the IC50 (HUT78 cells [15]; read-out: IC50 (50% decrease in viability), HUT78, 24 hours) was 8 µM and the “lowest concentration triggering near-maximal CHOP induction” value ([16]; HUT78 cells) was 0.1 µM. The “expression levels of c-myc and cyclin D proteins” value ([16]; HUT102 and MyLa cells) was “declined”, the “lowest concentration triggering near-maximal CHOP induction” value ([16]; HUT102 cells) was 1.0 µM and the “concentration dependence of CHOP induction” value ([16]; MyLa cells, 96 hours) was “gradual increase all the way up to 100 μM”. The “induction of CHOP protein” value ([16]; all three CTCL cell lines) was “prominent induction of CHOP protein”, the proliferation-inhibitory effect (HUT78 cells [17]) was “strongest effect” and the IC50 [18] was 60 µM. The “concentration at which apoptosis markers emerged” value ([19]; HUT78 and HUT102 cells) was 0.1 to 1.0 µM, the “concentration required for apoptosis markers” value ([19]; MyLa cells) was 30 µM and the “induction of apoptosis markers” value ([19]; all three CTCL cell lines) was “appearance of cleaved PARP and cleaved (i.e., activated) caspases 3 and 4”. For the same compound, the “cytotoxicity in colony forming assay” value ([20]; listed as POH-TMZ) was “substantially greater potency compared to POH alone” and the “cytotoxicity in colony forming assay” value ([20]; listed as TMZ-POH) was “demonstrated cytotoxicity”.
